Test results taken from the supplement of paper PMC8253809.

How the values were obtained:
DIPGX29 [1] = H3.3 K27M diffuse intrinsic pontine glioma line; assay: EC50 (inflection of fitted growth-inhibition curve) (log10 M)
In short: (§1)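 Treatment used a pin tool and a 10-point threefold dilution series, mean top concentration 35 μM, run in triplicate on patient-derived pHGG/DIPG cell lines and astrocyte controls in 1% Geltrex-coated 384-well plates. Plates were kept at 37 °C, 5% CO2 for 7 days (iAstro: 3 days). Log2-transformed CellTiter-Glo luminescence was scaled per plate to % activity between negative (solvent) and positive control wells and pooled before fitting. EC50 and maximal response (yFin) came from the three- or four-parameter log-logistic fit chosen by lowest AICc.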

DIPGX37 [2] = H3.3 K27M diffuse intrinsic pontine glioma line; assay: as above
In short: as §1

HGGX39 [3] = paediatric high-grade glioma line; assay: as above
In short: as §1

HGGX6 [4] = H3.3 G34R paediatric high-grade glioma line; assay: as above
In short: as §1

DIPGX29 [5] = assay: maximal growth inhibition (yFin) relative to DMSO / staurosporine; higher = more efficacious
In short: as §1

DIPGX37 [6] = assay: as above
In short: as §1

HGGX39 [7] = assay: as above
In short: as §1

HGGX6 [8] = assay: as above
In short: as §1

DIPGX29 [9] = assay: area under dose-response curve of % growth inhibition (log2 RLU vs DMSO / staurosporine), 1e-11 to 1e-4 M (% x log10 M); higher = more growth inhibition
In short: (§2)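 Patient-derived pHGG/DIPG cell lines and astrocytes were plated in 384-well plates coated with 1% Geltrex and treated in triplicate with a 10-point threefold dilution series whose mean top concentration was 35 μM, for 7 days (3 days for iAstro) at 37 °C and 5% CO2. CellTiter-Glo luminescence was log2-transformed and scaled on each plate to % activity between solvent and positive controls. Area under the curve came from the trapezoid rule applied to a fitted log-logistic curve, or to a smoothing spline where the sigmoid fit failed.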

DIPGX37 [10] = assay: as above
In short: as §2

HGGX39 [11] = assay: as above
In short: as §2

HGGX6 [12] = assay: as above
In short: as §2

| Compound | EC50 (log10 M) (DIPGX29 [1]) | EC50 (log10 M) (DIPGX37 [2]) | EC50 (log10 M) (HGGX39 [3]) | EC50 (log10 M) (HGGX6 [4]) | maximal growth inhibition (DIPGX29 [5]) [%] | maximal growth inhibition (DIPGX37 [6]) [%] | maximal growth inhibition (HGGX39 [7]) [%] | maximal growth inhibition (HGGX6 [8]) [%] | area under dose-response curve (DIPGX29 [9]) | area under dose-response curve (DIPGX37 [10]) | area under dose-response curve (HGGX39 [11]) | area under dose-response curve (HGGX6 [12]) |
| --- | --- | --- | --- | --- | --- | --- | --- | --- | --- | --- | --- | --- |
| CNC(=O)c1cc(Oc2ccc(NC(=O)Nc3ccc(Cl)c(C(F)(F)F)c3)cc2)ccn1 [SORAFENIB] | -4.82 | -4.9 | -4.96 | -4.9 | 57.2 | 79 | 80.4 | 75.3 | 46.9 | 104 | 77 | 77.2 |
| Cc1nc(-c2cccnc2)sc1C(=O)Nc1ccccc1-c1cn2c(CN3CCOCC3)csc2n1 [SRT2104] | -5.16 | -5.24 | -4.84 | -5.21 | 69 | 68.5 | 72.4 | 67.3 | 79.7 | 101 | 60.9 | 80.8 |
| Clc1ccc(CSC(Cn2ccnc2)c2ccc(Cl)cc2Cl)cc1 (stereo not drawn) [SULCONAZOLE] | -4.86 | -4.68 | -4.87 | -4.87 | 45.9 | 61.3 | 34.1 | 44.1 | 48.2 | 41.8 | 39.2 | 44.2 |
| Cc1nc(-c2cn3c(n2)-c2ccc(-c4cnn(C(C)(C)C(N)=O)c4)cc2OCC3)n(C(C)C)n1 [TASELISIB] | -5.8 | -6.36 | -5.49 | -6.13 | 63.3 | 56.7 | 47.5 | 38.8 | 122 | 138 | 74.8 | 86 |
